Reference: patent publication US20100222334A1 (priority 2007, published 2010)

Tests used:
[1] = human, in vivo
Description: In order to determine the relative bioavailability, an open-label, single dose, two-period, crossover study is conducted in 24 healthy subjects.

[2] = Bioavailability of new 80 mg valsartan pediatric tablet relative to 80 mg commercial tablet, single-dose crossover; details: in the same study
Description: The study is conducted in 24 healthy subjects using an open-label, single-dose, two period, randomized, crossover study design.

[3] = administered as immediate release tablet formulation (Diovan); cited from earlier work

CCCCC(=O)N(Cc1ccc(-c2ccccc2-c2nnn[nH]2)cc1)[C@H](C(=O)O)C(C)C [Valsartan, (S)—N-(1-carboxy-2-methylprop-1-yl)-N-pentanoyl-N-[2′-(1H-tetrazol-5-yl)biphenyl-4-ylmethyl]amine]
intersubject variability (CV %) for the Cmax and AUCτ [1]: 24-40% | variability of valsartan PK [2]: 30-50% | bioavailability [3]: around 30%
